From US10780090B2, “Heteroaryl compounds useful as inhibitors of SUMO activating enzyme” (Millennium Pharmaceuticals, Inc., priority 2014, dated 2020) come the findings set out here.

In general, IC50 refers to the midpoint of a concentration-inhibition curve. In general, inhibition refers to the relative decrease from the control value, in per cent.

Where two headings read alike, the source gives them in different places.

This test addresses recombinant human SAE enzyme (Homo sapiens (Human), UniProt Q9UBT2). In words: SAE HTRF enzyme assay. The following applies: for inhibition at 0.111 µM: read-out: Percent Inhibition. Type of test: biochemical. Summed up:
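Enzyme reaction: 50 mM HEPES pH 7.5, 5 mM MgCl2, 250 μM GSH, 0.05% BSA, 0.5 μM ATP, 0.01 μM Ubc9-GST, 0.125 μM Sumo-Flag, 0.11 nM SAE; 105 min, 24° C. Stop/detect, 2 h, then HTRF. % inh or IC50.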
Background: Time-resolved FRET reads energy transfer from a long-lived donor to a nearby acceptor.

[1] abbreviates: SAE inhibition at compound concentration 0.111 μM.
[2] abbreviates: SAE inhibition, class symbols, legend in nM.

Sequence of recombinant human SAE enzyme (Q9UBT2 whole entry): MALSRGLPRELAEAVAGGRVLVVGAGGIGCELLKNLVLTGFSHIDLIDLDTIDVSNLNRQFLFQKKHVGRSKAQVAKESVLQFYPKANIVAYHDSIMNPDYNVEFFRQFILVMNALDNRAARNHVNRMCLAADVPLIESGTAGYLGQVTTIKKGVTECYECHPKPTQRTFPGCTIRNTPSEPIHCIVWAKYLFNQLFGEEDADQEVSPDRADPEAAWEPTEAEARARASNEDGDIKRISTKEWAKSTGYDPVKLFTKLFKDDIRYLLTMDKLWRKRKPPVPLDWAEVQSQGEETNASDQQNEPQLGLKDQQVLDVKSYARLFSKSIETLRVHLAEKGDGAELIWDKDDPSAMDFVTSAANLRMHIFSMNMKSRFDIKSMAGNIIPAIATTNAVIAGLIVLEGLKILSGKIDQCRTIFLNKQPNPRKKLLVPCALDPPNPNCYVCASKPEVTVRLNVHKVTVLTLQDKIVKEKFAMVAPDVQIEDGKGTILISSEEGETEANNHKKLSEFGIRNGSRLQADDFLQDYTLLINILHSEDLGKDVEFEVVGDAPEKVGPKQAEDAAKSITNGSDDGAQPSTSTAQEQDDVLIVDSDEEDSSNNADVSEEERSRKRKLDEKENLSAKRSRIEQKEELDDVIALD
Sequence of recombinant human SAE enzyme (Q9UBE0 whole entry partner): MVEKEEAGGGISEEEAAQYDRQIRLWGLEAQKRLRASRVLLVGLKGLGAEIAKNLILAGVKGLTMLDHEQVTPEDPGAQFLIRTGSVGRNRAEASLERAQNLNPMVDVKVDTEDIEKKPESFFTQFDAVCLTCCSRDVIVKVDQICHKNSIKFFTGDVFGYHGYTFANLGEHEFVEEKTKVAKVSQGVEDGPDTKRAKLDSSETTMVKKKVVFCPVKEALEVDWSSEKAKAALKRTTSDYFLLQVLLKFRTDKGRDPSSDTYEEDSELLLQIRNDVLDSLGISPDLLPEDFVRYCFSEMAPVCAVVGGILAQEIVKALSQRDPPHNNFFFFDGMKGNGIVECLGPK

Turning to `NS(=O)(=O)OC[C@H]1C[C@@H](Nc2ncncc2C(=O)c2cc([C@@H]3OCCc4ccc(F)cc43)c(Cl)s2)C[C@@H]1O` (single isomer, unassigned) [I-294b, [(1R,2S,4R)-4-{[5-({5-chloro-4-[(1R)-7-fluoro-3,4-dihydro-1H-isochromen-1-yl]-2-thienyl}carbonyl)pyrimidin-4-yl]amino}-2-hydroxycyclopentyl]methyl sulfamate or [(1R,2S,4R)-4-{[5-({5-chloro-4-[(1S)-7-fluoro-3,4-dihydro-1H-isochromen-1-yl]-2-thienyl}carbonyl)pyrimidin-4-yl]amino}-2-hydroxycyclopentyl]methyl sulfamate], the “Percent Inhibition” value under setting [1] turned out to be 98%. In addition, the concentration for half-maximal inhibition (IC50) under setting [2] is below 10 nM.
`COc1ccccc1[C@@H](O)c1cc(C(=O)c2cncnc2N[C@@H]2C[C@H](COS(N)(=O)=O)[C@@H](O)C2)sc1Cl` (mixture of isomers) [I-85, [(1R,2S,4R)-4-{[5-({5-chloro-4-[(R)-hydroxy(2-methoxyphenyl)methyl]-2-thienyl}carbonyl)pyrimidin-4-yl]amino}-2-hydroxycyclopentyl]methyl sulfamate and [(1R,2S,4R)-4-{[5-({5-chloro-4-[(S)-hydroxy(2-methoxyphenyl)methyl]-2-thienyl}carbonyl)pyrimidin-4-yl]amino}-2-hydroxycyclopentyl]methyl sulfamate]: under “Concentration 0.111 μM”, the “Percent Inhibition” value is reported as 97. In addition, the IC50 (class symbols A/B/C) is below 10 nM.
The like results for `C[C@](O)(c1csc(C(=O)c2cncnc2N[C@@H]2C[C@H](COS(N)(=O)=O)[C@@H](O)C2)c1)c1cccc(Br)n1` (mixture of isomers) [I-54, [(1R,2S,4R)-4-{[5-({4-[(1S)-1-(6-bromopyridin-2-yl)-1-hydroxyethyl]-2-thienyl}carbonyl)pyrimidin-4-yl]amino}-2-hydroxycyclopentyl]methyl sulfamate and [(1R,2S,4R)-4-{[5-({4-[(1R)-1-(6-bromopyridin-2-yl)-1-hydroxyethyl]-2-thienyl}carbonyl)pyrimidin-4-yl]amino}-2-hydroxycyclopentyl]methyl sulfamate] were, in that order, 99 and below 10 nM.
Take `N[C@H](c1cccc(Cl)c1)c1csc(C(=O)c2cncnc2N[C@@H]2C[C@H](COS(N)(=O)=O)[C@@H](O)C2)c1` (single isomer, unassigned) [I-36a, [(1R,2S,4R)-4-{[5-({4-[(R)-amino(3-chlorophenyl)methyl]-2-thienyl}carbonyl)pyrimidin-4-yl]amino}-2-hydroxycyclopentyl]methyl sulfamate or [(1R,2S,4R)-4-{[5-({4-[(S)-amino(3-chlorophenyl)methyl]-2-thienyl}carbonyl)pyrimidin-4-yl]amino}-2-hydroxycyclopentyl]methyl sulfamate]: where the note is “Concentration 0.111 μM”, the “Percent Inhibition” value turned out to be 100. The half-maximal inhibitory concentration (IC50) (class symbols A/B/C) is below 10 nM.
As to `NS(=O)(=O)OC[C@H]1C[C@@H](Nc2ncncc2C(=O)c2cc(CCc3ccc(Cl)cc3)cs2)C[C@@H]1O` [I-178, [(1R,2S,4R)-4-{[5-({4-[2-(4-chlorophenyl)ethyl]-2-thienyl}carbonyl)pyrimidin-4-yl]amino}-2-hydroxycyclopentyl]methyl sulfamate], the inhibition at 0.111 µM (Concentration 0.111 μM) is 87%. Besides, the IC50 (class symbols A/B/C) lay in the range of 10 to 100 nM.
As for `Cc1sc(C(=O)c2cncnc2N[C@@H]2C[C@H](COS(N)(=O)=O)[C@@H](O)[C@@H]2F)cc1[C@H]1OCCc2ccc(Cl)cc21` (single isomer, unassigned) [I-264a, [(1R,2R,3R,4R)-4-{[5-({4-[(1S)-7-chloro-3,4-dihydro-1H-isochromen-1-yl]-5-methyl-2-thienyl}carbonyl)pyrimidin-4-yl]amino}-3-fluoro-2-hydroxycyclopentyl]methyl sulfamate or [(1R,2R,3R,4R)-4-{[5-({4-[(1R)-7-chloro-3,4-dihydro-1H-isochromen-1-yl]-5-methyl-2-thienyl}carbonyl)pyrimidin-4-yl]amino}-3-fluoro-2-hydroxycyclopentyl]methyl sulfamate], the “Percent Inhibition” value (Concentration 0.111 μM) is recorded as 33. Where the note is “class symbols A/B/C”, the IC50 is 100 to 1000 nM.
The like results for `NS(=O)(=O)OC[C@H]1C[C@@H](Nc2ncncc2C(=O)c2cc(C3NCCc4ccc(Cl)cc43)cs2)C[C@@H]1O` (single isomer, unassigned) [I-274b, [(1R,2S,4R)-4-{[5-({4-[(1R)-7-chloro-1,2,3,4-tetrahydroisoquinolin-1-yl]-2-thienyl}carbonyl)pyrimidin-4-yl]amino}-2-hydroxycyclopentyl]methyl sulfamate or [(1R,2S,4R)-4-{[5-({4-[(1S)-7-chloro-1,2,3,4-tetrahydroisoquinolin-1-yl]-2-thienyl}carbonyl)pyrimidin-4-yl]amino}-2-hydroxycyclopentyl]methyl sulfamate] were, in that order, 81 and 10 to 100 nM.
On to `Cc1sc(C(=O)c2cncnc2N[C@@H]2C[C@H](COS(N)(=O)=O)[C@@H](O)C2)cc1[C@H]1NCCc2ccc(Br)cc21` (single isomer, unassigned) [I-248b, [(1R,2S,4R)-4-{[5-({4-[(1S)-7-bromo-1,2,3,4-tetrahydroisoquinolin-1-yl]-5-methyl-2-thienyl}carbonyl)pyrimidin-4-yl]amino}-2-hydroxycyclopentyl]methyl sulfamate or [(1R,2S,4R)-4-{[5-({4-[(1R)-7-bromo-1,2,3,4-tetrahydroisoquinolin-1-yl]-5-methyl-2-thienyl}carbonyl)pyrimidin-4-yl]amino}-2-hydroxycyclopentyl]methyl sulfamate], for which the “Percent Inhibition” value (Concentration 0.111 μM) is recorded as 95. Besides, the IC50 (class symbols A/B/C) was below 10 nM.
For `NS(=O)(=O)OC[C@H]1C[C@@H](Nc2ncncc2C(=O)c2cc([C@@]3(C4CC4)CCCO3)cs2)C[C@@H]1O` (mixture of isomers) [I-238, [(1R,2S,4R)-4-{[5-({4-[(2S)-2-cyclopropyltetrahydrofuran-2-yl]-2-thienyl}carbonyl)pyrimidin-4-yl]amino}-2-hydroxycyclopentyl]methyl sulfamate and [(1R,2S,4R)-4-{[5-({4-[(2R)-2-cyclopropyltetrahydrofuran-2-yl]-2-thienyl}carbonyl)pyrimidin-4-yl]amino}-2-hydroxycyclopentyl]methyl sulfamate], the “Percent Inhibition” value (Concentration 0.111 μM) was determined as 25. Under “class symbols A/B/C”, the half-maximal inhibitory concentration (IC50) was in the range of 100 to 1000 nM.
As for `NS(=O)(=O)OC[C@H]1C[C@@H](Nc2ncncc2C(=O)c2cc(Cl)c([C@H](O)c3cccc(Cl)c3)s2)C[C@@H]1O` (single isomer, unassigned) [I-151b, [(1R,2S,4R)-4-{[5-({4-chloro-5-[(R)-(3-chlorophenyl)(hydroxy)methyl]-2-thienyl}carbonyl)pyrimidin-4-yl]amino}-2-hydroxycyclopentyl]methyl sulfamate or [(1R,2S,4R)-4-{[5-({4-chloro-5-[(S)-(3-chlorophenyl)(hydroxy)methyl]-2-thienyl}carbonyl)pyrimidin-4-yl]amino}-2-hydroxycyclopentyl]methyl sulfamate], the “Percent Inhibition” value (Concentration 0.111 μM) worked out at 93. Also, the half-inhibitory concentration (IC50) (class symbols A/B/C) is below 10 nM.
Regarding `Cc1sc(C(=O)c2cncnc2N[C@@H]2C[C@H](COS(N)(=O)=O)[C@@H](O)C2)nc1Cc1cccc(Cl)c1` [I-353, {(1R,2S,4R)-4-[(5-{[4-(3-chlorobenzyl)-5-methyl-1,3-thiazol-2-yl]carbonyl}pyrimidin-4-yl)amino]-2-hydroxycyclopentyl}methyl sulfamate], under setting [1], the inhibition at 0.111 µM is 98%. Besides, under setting [2], the 50% inhibitory concentration (IC50) was below 10 nM.
